Several values for one entry are separate records, joined by “and”; a condition that tells them apart may be missing. Equal entries are not always repeated. Where two headings read alike, the source gives them in different places.

The test system of one series is HepaRG spheroids. Nature of the series: Repeated-exposure toxicity in HepaRG spheroids with or without BA mixture, cellular ATP content. The class given is cell-based, human. The note with it: for CIx (mean of the independent experiments): 8 days co-exposure with BAs vs compound alone; for CC50: Homo sapiens, HepaRG, compound alone, read-out: Without BA EC50; for CC50 / Cholestatic Index (EC50 (+BA) / EC50 (-BA)): ATP, one value per independent experiment. Here is the method: Cryopreserved differentiated HepaRG cells (Biopredic International, France) were thawed according to the supplier’s instructions. The cells were seeded in Williams’ medium E with GlutaMAX^TM containing the thaw, seed and general purpose additive (ADD670; Biopredic International). The cells were seeded at a density of 2,000 viable cells per well in ULA plates. From day 5, the spheroids were maintained in medium containing 0.5% DMSO, the serum-free induction additive (ADD650, Biopredic International), 20 ng/ml epidermal growth factor and 10 ng/ml hepatocyte growth factor (HumaXpress, Nordic BioSite, Sweden).
(§1) Toxicity studies were started at day 8 and day 5 for PHH and HepaRG spheroids, respectively.

For series [1], the system named is multi-donor PHH spheroids. Nature of the series: Repeated-exposure toxicity in multi-donor PHH spheroids with or without BA mixture, albumin secretion. In kind it is cell-based, human. The following applies: for EC50: Homo sapiens, 336 h, 14 days repeated exposure. Here is the method: The cells were seeded in PHH medium (Williams’ medium E containing 100 units/ml penicillin, 100 μg/ml streptomycin, 2 mM L-glutamine, 10 μg/ml insulin, 5.5 μg/ml transferrin, 6.7 ng/ml sodium selenite, 100 nM dexamethasone) supplemented with 10% fetal bovine serum. […] When PHH had reassembled into compact aggregates (day 4–6 after seeding), spheroids were shifted to serum-free PHH medium. […] The spheroids were maintained in serum-free PHH medium.
as §1

Series [2] has as its system ABCB11, SRXN1, NFE2L2, DR5 expression in PHH spheroids. As to the kind of experiment: RT-qPCR gene expression in PHH spheroids. In kind it is cell-based, human. The following applies: 8 days, co-exposure with non-toxic BA mixture compared to compound or BAs alone. Here is the method: (§2) Total RNA was extracted using Qiazol according to the manufacturer’s protocol. RNA was reverse-transcribed into cDNA with SuperScript III reverse transcriptase. RT-qPCR analysis was performed with a 7500 Fast Real-Time PCR system using a TaqMan Universal or SYBR Green mix.

The subject of series [3] is ABCB11, SRXN1, NFE2L2, DR5 expression in HepaRG spheroids. As to the kind of experiment: RT-qPCR gene expression in HepaRG spheroids. In kind it is cell-based, human. The following applies: 8 days, co-exposure with non-toxic BA mixture compared to compound or BAs alone. Here is the method: as §2
On the technique in general: Real-time PCR tracks product formation cycle by cycle.

A further series deals with PHH spheroids. Nature of the series: Repeated-exposure toxicity in PHH spheroids with or without BA mixture, cellular ATP content.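 As to all read-outs here: primary human hepatocyte spheroids dosed every second day with compound, with or without a bile acid mixture, viability read as cellular ATP by luminescence.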 The following applies: for CC50: Homo sapiens; for CC50 / Cholestatic Index (EC50 (+BA) / EC50 (-BA)): one value per independent experiment; for CIx (mean of the independent experiments) / Cholestatic risk classification based on CIx / Cholestatic Index (EC50 (+BA) / EC50 (-BA)): PHH spheroids; for CIx (mean of the independent experiments): 8 days co-exposure with BAs vs compound alone; for Cholestatic Index (EC50 (+BA) / EC50 (-BA)): ATP.

In a further series the test system is BSEP. The note with it: quoted in the discussion, no reference given; read-out: BSEP inhibition IC50; cited from earlier work.
The mark [4] stands for this setting: 192 h, 8 days repeated exposure.
The mark [5] stands for this setting: 336 h, 14 days repeated exposure.
[6] abbreviates: multi-donor PHH spheroids (10 donors), co-exposure with BA mixture, albumin secretion, read-out: With BA EC50.
The mark [7] stands for this setting: multi-donor PHH spheroids (10 donors), compound alone, albumin secretion, read-out: Without BA EC50.
[8] abbreviates: 192 h, read-out: Without BA EC50, PHH spheroids, 8 days repeated exposure, compound alone, ATP.
[9] abbreviates: 336 h, read-out: Without BA EC50, PHH spheroids, 14 days repeated exposure, compound alone, ATP.

The term EC50 denotes the midpoint of the concentration-response curve. Regarding `CC(=O)Nc1ccc(O)cc1` [Acetaminophen, acetaminophen], the “CIx (mean of the independent experiments)” value in the series on HepaRG spheroids amounted to 1.02 ± 0.03; with PHH spheroids, 1.89 ± 0.37. The CC50 with HepaRG spheroids (setting [4]) was found to be 1600 µM; in the series with HepaRG spheroids (setting [5]), 1000 µM; with PHH spheroids (setting [8]), 1090 µM; in the series with PHH spheroids (setting [9]) it was 804 µM. The EC50 in series [1] (setting [6]) amounted to 1830 µM; in series [1] (setting [7]), 1910 µM. Further, the DR5 expression entry in series [2] and in series [3] was “no induction of DR5” throughout. In addition, the NFE2L2 expression result in series [2] and in series [3] was “no changes in SRXN1 or NFE2L2 expression” in each case. In addition, the SRXN1 expression entry in series [2] and in series [3] was “no changes in SRXN1 or NFE2L2 expression” each time.

The term IC50 denotes the concentration at which inhibition is half-maximal. Turning to `COc1ccccc1Oc1c(NS(=O)(=O)c2ccc(C(C)(C)C)cc2)nc(-c2ncccn2)nc1OCCO` [Bosentan, bosentan], the “Cholestatic risk classification based on CIx” value in the series with HepaRG spheroids (8 days) and with PHH spheroids (8 days) was “cholestatic risk (compounds with a CIx ≤ 0.80 were considered to have cholestatic risk)” throughout. Further, the “CIx (mean of the independent experiments)” value was found to be 0.60 ± 0.06 with HepaRG spheroids and 0.19 ± 0.12 in the series on PHH spheroids. In addition, the “Cholestatic Index (EC50 (+BA) / EC50 (-BA))” value was 0.63 and 0.54 and 0.64 in the series with HepaRG spheroids (8 days); 0.61 and 0.50 and 0.48 in the series on HepaRG spheroids (14 days); 0.53 in series [1] (both, human, 14 days); 0.11 and 0.12 and 0.16 in the series on PHH spheroids (14 days). Further, the CC50 was 187 µM with HepaRG spheroids (setting [4]), 115 µM with HepaRG spheroids (setting [5]), 66 µM with PHH spheroids (setting [8]) and 55 µM in the series on PHH spheroids (setting [9]). Also, the half-maximal effective concentration (EC50) in series [1] (setting [6]) was found to be 54 µM; in series [1] (setting [7]) it was 102 µM. Further, in the series on BSEP, the IC50 was 38.1 µM.

Consider `CCC(=O)O[C@H]1[C@H](O[C@@H]2[C@@H](C)[C@H](O[C@H]3C[C@@](C)(OC)[C@@H](O)[C@H](C)O3)[C@@H](C)C(=O)O[C@H](CC)[C@@](C)(O)[C@H](O)[C@@H](C)C(=O)[C@H](C)C[C@@]2(C)O)O[C@H](C)C[C@@H]1N(C)C` [Erythromycin estolate, erythromycin estolate], for which the EC50 in series [1] (setting [6]) came out at 18 µM; in series [1] (setting [7]), 28 µM. The “Cholestatic Index (EC50 (+BA) / EC50 (-BA))” value in series [1] (multi-donor PHH spheroids (10 donors), 14 days, albumin secretion) came out at 0.64. In series [1] (multi-donor PHH spheroids, 14 days), the “Cholestatic risk classification based on CIx” value was “cholestatic risk (compounds with a CIx ≤ 0.80 were considered to have cholestatic risk)”.

Turning to `CN(CCOc1ccc(CC2SC(=O)NC2=O)cc1)c1ccccn1` (stereo not drawn) [Rosiglitazone, rosiglitazone], the EC50 in series [1] (setting [6]) stood at 17 µM; in series [1] (setting [7]), 19 µM. Further, the “Cholestatic Index (EC50 (+BA) / EC50 (-BA))” value in series [1] (both, human, 14 days) amounted to 0.89.

For `Clc1ccccc1CN1CCc2sccc2C1` [Ticlopidine, ticlopidine], the EC50 amounted to 21 µM in series [1] (setting [6]) and 23 µM in series [1] (setting [7]).

In the case of `Cc1ccc(C(=O)c2cc(O)c(O)c([N+](=O)[O-])c2)cc1` [Tolcapone, tolcapone], the EC50 in series [1] (setting [6]) worked out at 13 µM; in series [1] (setting [7]), 14 µM. Besides, the “Cholestatic Index (EC50 (+BA) / EC50 (-BA))” value in series [1] (both, human, 14 days) is recorded as 0.93.

Regarding `Cc1c(C)c2c(c(C)c1O)CCC(C)(COc1ccc(CC3SC(=O)NC3=O)cc1)O2` (stereo not drawn) [Troglitazone, troglitazone], the “Cholestatic risk classification based on CIx” value in the series on HepaRG spheroids (8 days) and in the series with PHH spheroids (8 days) was “cholestatic risk (compounds with a CIx ≤ 0.80 were considered to have cholestatic risk)” throughout. Besides, the “CIx (mean of the independent experiments)” value in the series on HepaRG spheroids is 0.71 ± 0.17; in the series with PHH spheroids, 0.80 ± 0.17. Moreover, the “Cholestatic Index (EC50 (+BA) / EC50 (-BA))” value was 0.56 and 0.90 and 0.67 in the series on HepaRG spheroids (8 days); 0.63 in series [1] (both, human, 14 days); 0.99 and 0.72 and 0.67 with PHH spheroids (8 days); 0.45 and 0.67 and 0.86 with PHH spheroids (14 days). Also, the EC50 in series [1] (setting [6]) turned out to be 8.8 µM; in series [1] (setting [7]) it was 14 µM. In the series with BSEP, the IC50 is 2.7 µM. The results for the CC50 in the series on PHH spheroids (setting [8]) and in the series on PHH spheroids (setting [9]) were 11 µM and 6.2 µM, respectively.

The record behind these values is publication PMC5069690, “Hepatic 3D spheroid models for the detection and study of compounds with cholestatic liability” (Scientific Reports, 2016).
